# In PubChem BioAssay (NCI):
#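 Briefly, cells in 96-well plates were exposed to five compound concentrations for 48 h, and endpoints were estimated by linear interpolation. TGI marks complete inhibition of growth.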
# Legend:
# Assay in all cases: inhibition of tumour cell growth, NCI panel, 48 h
# SF-539 CNS = system: SF-539 CNS
# HCC-2998 colon = system: HCC-2998 colon
# A498 renal = system: A498 renal
# PC-3 prostate = system: PC-3 prostate
# UACC-257 melanoma = system: UACC-257 melanoma
# SF-268 CNS = system: SF-268 CNS
# MCF7 breast = system: MCF7 breast
# NCI/ADR-RES ovarian = system: NCI/ADR-RES ovarian
# UO-31 renal = system: UO-31 renal
# HS 578T breast = system: HS 578T breast
# SK-MEL-28 melanoma = system: SK-MEL-28 melanoma
# COLO 205 colon = system: COLO 205 colon
# CCRF-CEM leukemia = system: CCRF-CEM leukemia
# OVCAR-8 ovarian = system: OVCAR-8 ovarian
# NCI-H226 lung = system: NCI-H226 lung
# BT-549 breast = system: BT-549 breast
# MDA-MB-435 = system: MDA-MB-435
# NCI-H23 lung = system: NCI-H23 lung
# MOLT-4 leukemia = system: MOLT-4 leukemia
# MDA-N = system: MDA-N
# KM12 colon = system: KM12 colon
# SK-MEL-5 melanoma = system: SK-MEL-5 melanoma
# HCT-116 colon = system: HCT-116 colon
# UACC-62 melanoma = system: UACC-62 melanoma
# SF-295 CNS = system: SF-295 CNS
# OVCAR-5 ovarian = system: OVCAR-5 ovarian
# EKVX NSCLC = system: EKVX NSCLC
# CAKI-1 renal = system: CAKI-1 renal
# MALME-3M melanoma = system: MALME-3M melanoma
# SN12C renal = system: SN12C renal
# TK-10 renal = system: TK-10 renal
# OVCAR-3 ovarian = system: OVCAR-3 ovarian
# DU-145 prostate = system: DU-145 prostate
# NCI-H460 lung = system: NCI-H460 lung
# 786-0 renal = system: 786-0 renal
# SK-OV-3 ovarian = system: SK-OV-3 ovarian
# A549 NSCLC = system: A549 NSCLC
# NCI-H522 lung = system: NCI-H522 lung
# HCT-15 colon = system: HCT-15 colon
# U251 CNS = system: U251 CNS
# OVCAR-4 ovarian = system: OVCAR-4 ovarian
# ACHN renal = system: ACHN renal
# K-562 leukemia = system: K-562 leukemia
# HT29 colon = system: HT29 colon
# HOP-62 NSCLC = system: HOP-62 NSCLC
# SW-620 colon = system: SW-620 colon
# RXF 393 renal = system: RXF 393 renal
# T-47D breast = system: T-47D breast
# SR leukemia = system: SR leukemia
# HOP-92 NSCLC = system: HOP-92 NSCLC
# SNB-19 CNS = system: SNB-19 CNS
# IGROV1 ovarian = system: IGROV1 ovarian
# HL-60(TB) leukemia = system: HL-60(TB) leukemia
# LOX IMVI melanoma = system: LOX IMVI melanoma
# MDA-MB-231 breast = system: MDA-MB-231 breast
# M14 melanoma = system: M14 melanoma
# SNB-75 CNS = system: SNB-75 CNS
# SK-MEL-2 melanoma = system: SK-MEL-2 melanoma
# RPMI-8226 leukemia = system: RPMI-8226 leukemia
compound,measurement,setting,value
COc1cc(C(=O)/C=C/c2ccc(OCC#N)cc2)cc(OC)c1OC,TGI,SF-539 CNS,33.2 µM
same,TGI,HCC-2998 colon,30.6 µM
same,TGI,A498 renal,65.9 µM
same,TGI,PC-3 prostate,38 µM
same,TGI,UACC-257 melanoma,> 100 µM
same,TGI,SF-268 CNS,> 100 µM
same,TGI,MCF7 breast,23.3 µM
same,TGI,NCI/ADR-RES ovarian,48.3 µM
same,TGI,UO-31 renal,31.4 µM
same,TGI,HS 578T breast,> 100 µM
same,TGI,SK-MEL-28 melanoma,32 µM
same,TGI,COLO 205 colon,39.5 µM
same,TGI,CCRF-CEM leukemia,65.1 µM
same,TGI,OVCAR-8 ovarian,> 100 µM
same,TGI,NCI-H226 lung,58.5 µM
same,TGI,BT-549 breast,32 µM
same,TGI,MDA-MB-435,40.2 µM
same,TGI,NCI-H23 lung,43.2 µM
same,TGI,MOLT-4 leukemia,90.7 µM
same,TGI,MDA-N,> 100 µM
same,TGI,KM12 colon,32 µM
same,TGI,SK-MEL-5 melanoma,25.9 µM
same,TGI,HCT-116 colon,26.9 µM
same,TGI,UACC-62 melanoma,48.5 µM
same,TGI,SF-295 CNS,> 100 µM
same,TGI,OVCAR-5 ovarian,> 100 µM
same,TGI,EKVX NSCLC,> 100 µM
same,TGI,CAKI-1 renal,69.6 µM
same,TGI,MALME-3M melanoma,33 µM
same,TGI,SN12C renal,36.3 µM
same,TGI,TK-10 renal,70.1 µM
same,TGI,OVCAR-3 ovarian,59.5 µM
same,TGI,DU-145 prostate,79.8 µM
same,TGI,NCI-H460 lung,80.9 µM
same,TGI,786-0 renal,37.9 µM
same,TGI,SK-OV-3 ovarian,> 100 µM
same,TGI,A549 NSCLC,50.9 µM
same,TGI,NCI-H522 lung,35.9 µM
same,TGI,HCT-15 colon,40.3 µM
same,TGI,U251 CNS,33.4 µM
same,TGI,OVCAR-4 ovarian,> 100 µM
same,TGI,ACHN renal,51.8 µM
same,TGI,K-562 leukemia,86.9 µM
same,TGI,HT29 colon,> 100 µM
same,TGI,HOP-62 NSCLC,58.6 µM
same,TGI,SW-620 colon,37.3 µM
same,TGI,RXF 393 renal,34.1 µM
same,TGI,T-47D breast,36.5 µM
same,TGI,SR leukemia,55.4 µM
same,TGI,HOP-92 NSCLC,35.9 µM
same,TGI,SNB-19 CNS,54.4 µM
same,TGI,IGROV1 ovarian,> 100 µM
COC(=O)C1=C(C)C(=O)[C@]23C(CCCC[C@H]12)C(=O)[C@H](C(=O)OC)C3C (some centres not stated),TGI,SF-539 CNS,> 100 µM
same,TGI,HCC-2998 colon,> 100 µM
same,TGI,HL-60(TB) leukemia,> 100 µM
same,TGI,PC-3 prostate,> 100 µM
same,TGI,UACC-257 melanoma,> 100 µM
same,TGI,SF-268 CNS,> 100 µM
same,TGI,LOX IMVI melanoma,> 100 µM
same,TGI,MCF7 breast,> 100 µM
same,TGI,NCI/ADR-RES ovarian,> 100 µM
same,TGI,UO-31 renal,> 100 µM
same,TGI,HS 578T breast,> 100 µM
same,TGI,SK-MEL-28 melanoma,> 100 µM
same,TGI,MDA-MB-231 breast,> 100 µM
same,TGI,COLO 205 colon,> 100 µM
same,TGI,CCRF-CEM leukemia,> 100 µM
same,TGI,OVCAR-8 ovarian,> 100 µM
same,TGI,NCI-H226 lung,> 100 µM
same,TGI,BT-549 breast,> 100 µM
same,TGI,MDA-MB-435,> 100 µM
same,TGI,NCI-H23 lung,> 100 µM
same,TGI,MOLT-4 leukemia,> 100 µM
same,TGI,MDA-N,> 100 µM
same,TGI,KM12 colon,> 100 µM
same,TGI,HCT-116 colon,> 100 µM
same,TGI,UACC-62 melanoma,> 100 µM
same,TGI,SF-295 CNS,> 100 µM
same,TGI,OVCAR-5 ovarian,> 100 µM
same,TGI,EKVX NSCLC,> 100 µM
same,TGI,CAKI-1 renal,> 100 µM
same,TGI,MALME-3M melanoma,> 100 µM
same,TGI,SN12C renal,> 100 µM
same,TGI,TK-10 renal,> 100 µM
same,TGI,OVCAR-3 ovarian,> 100 µM
same,TGI,DU-145 prostate,> 100 µM
same,TGI,NCI-H460 lung,> 100 µM
same,TGI,M14 melanoma,> 100 µM
same,TGI,786-0 renal,> 100 µM
same,TGI,SK-OV-3 ovarian,> 100 µM
same,TGI,A549 NSCLC,> 100 µM
same,TGI,NCI-H522 lung,> 100 µM
same,TGI,HCT-15 colon,> 100 µM
same,TGI,U251 CNS,> 100 µM
same,TGI,OVCAR-4 ovarian,> 100 µM
same,TGI,ACHN renal,> 100 µM
same,TGI,K-562 leukemia,> 100 µM
same,TGI,HT29 colon,> 100 µM
same,TGI,HOP-62 NSCLC,> 100 µM
same,TGI,SW-620 colon,> 100 µM
same,TGI,T-47D breast,> 100 µM
same,TGI,SR leukemia,> 100 µM
same,TGI,HOP-92 NSCLC,> 100 µM
same,TGI,SNB-19 CNS,> 100 µM
same,TGI,IGROV1 ovarian,> 100 µM
CN1CCN(C(=S)N(C(=O)c2ccc(Cl)cc2)c2ccccc2)CC1,TGI,HCC-2998 colon,> 100 µM
same,TGI,HL-60(TB) leukemia,> 100 µM
same,TGI,UACC-257 melanoma,> 100 µM
same,TGI,SF-268 CNS,> 100 µM
same,TGI,LOX IMVI melanoma,> 100 µM
same,TGI,MCF7 breast,> 100 µM
same,TGI,UO-31 renal,> 100 µM
same,TGI,HS 578T breast,> 100 µM
same,TGI,SK-MEL-28 melanoma,> 100 µM
same,TGI,MDA-MB-231 breast,> 100 µM
same,TGI,COLO 205 colon,> 100 µM
same,TGI,SNB-75 CNS,> 100 µM
same,TGI,OVCAR-8 ovarian,> 100 µM
same,TGI,NCI-H226 lung,> 100 µM
same,TGI,BT-549 breast,> 100 µM
same,TGI,MDA-MB-435,> 100 µM
same,TGI,NCI-H23 lung,> 100 µM
same,TGI,MOLT-4 leukemia,> 100 µM
same,TGI,MDA-N,> 100 µM
same,TGI,KM12 colon,> 100 µM
same,TGI,SK-MEL-5 melanoma,> 100 µM
same,TGI,UACC-62 melanoma,> 100 µM
same,TGI,SF-295 CNS,> 100 µM
same,TGI,OVCAR-5 ovarian,> 100 µM
same,TGI,MALME-3M melanoma,> 100 µM
same,TGI,SN12C renal,> 100 µM
same,TGI,SK-MEL-2 melanoma,> 100 µM
same,TGI,TK-10 renal,> 100 µM
same,TGI,OVCAR-3 ovarian,> 100 µM
same,TGI,DU-145 prostate,> 100 µM
same,TGI,NCI-H460 lung,> 100 µM
same,TGI,M14 melanoma,> 100 µM
same,TGI,786-0 renal,> 100 µM
same,TGI,A549 NSCLC,> 100 µM
same,TGI,NCI-H522 lung,> 100 µM
same,TGI,HCT-15 colon,> 100 µM
same,TGI,U251 CNS,> 100 µM
same,TGI,OVCAR-4 ovarian,> 100 µM
same,TGI,RPMI-8226 leukemia,> 100 µM
same,TGI,ACHN renal,> 100 µM
same,TGI,K-562 leukemia,> 100 µM
same,TGI,HT29 colon,> 100 µM
same,TGI,SW-620 colon,> 100 µM
same,TGI,RXF 393 renal,> 100 µM
same,TGI,T-47D breast,> 100 µM
same,TGI,SR leukemia,> 100 µM
same,TGI,HOP-92 NSCLC,> 100 µM
same,TGI,SNB-19 CNS,> 100 µM
same,TGI,IGROV1 ovarian,> 100 µM
Fc1ccc(Oc2nc3ccc(C(F)(F)F)cc3nc2-c2ccccc2)cc1,TGI,SF-539 CNS,> 100 µM
same,TGI,HCC-2998 colon,35.5 µM
same,TGI,HL-60(TB) leukemia,> 100 µM
same,TGI,PC-3 prostate,> 100 µM
same,TGI,UACC-257 melanoma,> 100 µM
same,TGI,SF-268 CNS,> 100 µM
same,TGI,LOX IMVI melanoma,> 100 µM
same,TGI,MCF7 breast,> 100 µM
same,TGI,NCI/ADR-RES ovarian,> 100 µM
same,TGI,UO-31 renal,> 100 µM
same,TGI,HS 578T breast,99.5 µM
same,TGI,MDA-MB-231 breast,> 100 µM
same,TGI,COLO 205 colon,> 100 µM
same,TGI,CCRF-CEM leukemia,> 10 µM
same,TGI,SNB-75 CNS,> 100 µM
same,TGI,OVCAR-8 ovarian,> 100 µM
same,TGI,BT-549 breast,> 100 µM
same,TGI,MDA-MB-435,> 100 µM
same,TGI,NCI-H23 lung,> 100 µM
same,TGI,MOLT-4 leukemia,> 100 µM
same,TGI,MDA-N,> 100 µM
same,TGI,KM12 colon,> 100 µM
same,TGI,SK-MEL-5 melanoma,> 100 µM
same,TGI,HCT-116 colon,> 100 µM
same,TGI,UACC-62 melanoma,> 100 µM
same,TGI,SF-295 CNS,> 100 µM
same,TGI,OVCAR-5 ovarian,> 100 µM
same,TGI,EKVX NSCLC,> 100 µM
same,TGI,CAKI-1 renal,70.8 µM
same,TGI,MALME-3M melanoma,> 100 µM
same,TGI,SN12C renal,> 100 µM
same,TGI,SK-MEL-2 melanoma,> 100 µM
same,TGI,TK-10 renal,> 100 µM
same,TGI,OVCAR-3 ovarian,> 100 µM
same,TGI,DU-145 prostate,> 100 µM
same,TGI,NCI-H460 lung,> 100 µM
same,TGI,M14 melanoma,> 100 µM
same,TGI,786-0 renal,> 100 µM
same,TGI,SK-OV-3 ovarian,> 100 µM
same,TGI,A549 NSCLC,> 100 µM
same,TGI,NCI-H522 lung,> 100 µM
same,TGI,HCT-15 colon,> 100 µM
same,TGI,OVCAR-4 ovarian,> 100 µM
same,TGI,ACHN renal,> 100 µM
same,TGI,K-562 leukemia,> 10 µM
same,TGI,HT29 colon,> 100 µM
same,TGI,HOP-62 NSCLC,> 100 µM
same,TGI,SW-620 colon,> 10 µM
same,TGI,RXF 393 renal,> 100 µM
same,TGI,T-47D breast,> 100 µM
same,TGI,SR leukemia,70.9 µM
same,TGI,SNB-19 CNS,> 100 µM
same,TGI,IGROV1 ovarian,> 100 µM
